What was measured:
CXCL12 to CXCR4 = CXCL12 to CXCR4 (Homo sapiens, UniProt P48061); details: cited from earlier work
CXCL12 to CXCR7 = CXCL12 to CXCR7 (Homo sapiens, UniProt P48061); details: cited from earlier work
[1] = tested on: Balb/c mice sensitized to ovalbumin; details: mouse model of airway allergic eosinophilic inflammation; cited from earlier work
CCL22 = biological target: T1, CCL22 (Homo sapiens, UniProt O00626); assay: Selectivity towards chemokine CCL22; details: 5 μM
T1 sequence (O00626 25-93): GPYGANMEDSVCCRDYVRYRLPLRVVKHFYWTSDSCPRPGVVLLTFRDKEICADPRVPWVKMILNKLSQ
Procedure: Furthermore, the selectivity of (1) was also evaluated towards two other chemokines, namely CCL17 and CCL22, with no activity at 5 μM (data not shown).

MRL/lpr mice = assay: Peripheral hypercellularity in MRL/lpr lupus prone mice; assay type: in vivo; details: single i.v. administration, 100 μg/mouse, counted five days later; p <0.05
Procedure: Effect of compound (1) and classical anti-inflammatory drugs on peripheral hypercellularity in MRL/lpr mice. MRL/lpr mice (11-13 week-old) received intravenously a single administration of either compound (1) or chalcone 4-Phosphate or indicated molecules in saline (100 μg/mouse of each). The control group received saline only. The number of white blood cells (WBCs)/mL was evaluated by counting cells five days later. The results are expressed as the mean reduction of peripheral WBCs percentage+/−SEM. Statistical significance was assessed using the unpaired t-test. n=number of mice/group; ns=non-significant. […]
The test was as described previously (Schall et al., 2012; Briand et al., 2014). […] After centrifugation, white blood cells (WBCs) resuspended in phosphate buffer saline containing fetal calf serum were stained with acridine orange/propidium iodide and counted using a LUNA FL apparatus (logos Biosystems, Annandale, USA). The number of living WBCs in each group was compared to the one counted in the control group and the decrease of peripheral cell number was calculated. […] The results are expressed as the mean decreased of peripheral WBCs percentage SEM. Statistical differences were determined using the unpaired t test. Statistical results were calculated using the graphPad Prism software.

CXCL12 to CXCR7, sequence (P48061 22-89 limits assumed): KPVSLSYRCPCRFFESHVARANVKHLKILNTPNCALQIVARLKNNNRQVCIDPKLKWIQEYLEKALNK
CXCL12 to CXCR4, sequence (P48061 22-89 limits assumed): as above

Activity towards CCL22 (CCL22)	Structure (SMILES)	Binding of CXCL12 to CXCR4 (CXCL12 to CXCR4)	Binding of CXCL12 to CXCR7 (CXCL12 to CXCR7)	Inflammatory infiltration, in particular of eosinophils [1]	Peripheral blood hypercellularity (WBCs) (MRL/lpr mice)
–	COc1cc(/C=C/C(=O)c2ccc(Cl)cc2)ccc1O [Chalcone-4, (E)-1-(4-Chlorophenyl)-3-(4-hydroxy-3-methoxyphenyl)prop-2-en-1-one, reference compound]	inhibits	inhibits	inhibits inflammatory infiltration	–
no activity	COc1cc(-c2cc(-c3ccc(Cl)cc3)nc(=O)[nH]2)ccc1O [compound (1), 4-(4-Chlorophenyl)-6-(4-hydroxy-3-methoxyphenyl)pyrimidin-2(1H)-one]	–	–	–	significantly reduce peripheral blood hypercellularity

— patent US11046657B2, “Pyrimidinone derivatives and uses thereof to neutralize the biological activity of chemokines” (Centre National de la Recherche Scientifique (CNRS), priority 2016, dated 2021)
